Target: T1, AR protein (Homo sapiens, UniProt P10275, T878A)
T1 construct: The percent AR protein degradation induced by these compounds at various concentrations in LNCaP cells; host or cells: LNCaP
T1 sequence (P10275 1-920 T878A): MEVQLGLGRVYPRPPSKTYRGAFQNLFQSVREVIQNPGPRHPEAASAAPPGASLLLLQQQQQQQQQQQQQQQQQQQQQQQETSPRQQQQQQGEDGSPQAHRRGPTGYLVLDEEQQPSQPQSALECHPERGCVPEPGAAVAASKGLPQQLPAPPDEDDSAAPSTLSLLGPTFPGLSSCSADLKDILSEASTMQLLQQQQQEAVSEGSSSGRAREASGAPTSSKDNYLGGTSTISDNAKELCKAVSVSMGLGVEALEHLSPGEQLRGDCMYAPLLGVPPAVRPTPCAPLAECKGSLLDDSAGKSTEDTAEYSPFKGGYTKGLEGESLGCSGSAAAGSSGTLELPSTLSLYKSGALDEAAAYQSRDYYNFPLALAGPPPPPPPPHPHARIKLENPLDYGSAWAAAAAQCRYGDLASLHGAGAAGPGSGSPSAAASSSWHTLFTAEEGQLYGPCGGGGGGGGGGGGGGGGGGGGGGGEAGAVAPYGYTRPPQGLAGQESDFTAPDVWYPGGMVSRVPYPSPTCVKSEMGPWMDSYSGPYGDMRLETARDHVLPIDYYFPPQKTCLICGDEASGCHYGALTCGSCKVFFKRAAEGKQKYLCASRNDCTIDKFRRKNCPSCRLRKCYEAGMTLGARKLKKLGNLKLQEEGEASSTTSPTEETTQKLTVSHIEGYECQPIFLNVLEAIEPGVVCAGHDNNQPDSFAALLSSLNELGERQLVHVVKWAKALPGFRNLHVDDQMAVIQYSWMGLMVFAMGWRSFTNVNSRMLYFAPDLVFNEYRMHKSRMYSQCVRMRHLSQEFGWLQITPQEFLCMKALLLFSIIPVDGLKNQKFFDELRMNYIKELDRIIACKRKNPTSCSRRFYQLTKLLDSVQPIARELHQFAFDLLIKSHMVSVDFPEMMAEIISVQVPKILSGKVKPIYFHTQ
Assay: AR protein degradation in LNCaP cells (Western blotting)
Assay type: cell-based
Details: treatment time 6 h, average of three independent experiments
Description: Cell lines and Cell Culture: All the LNCaP, VCaP and 22RV1 cells used were purchased from American Type Culture Collection (ATCC). […] All of the cells were supplemented with 10% fetal bovine serum (Invitrogen) at 37° C. in a humidified 5% CO2 incubator.
Western Blotting. Treated cells were lysed by RIPA buffer supplemented with protease and phosphatase inhibitors. […] Software ImageJ was used to quantify the percentage of AR degradation. The net protein bands and loading controls are calculated by deducting the background from the inverted band value. The final relative quantification values are the ratio of net band to net loading control.

[1] = LNCaP, 0.1 μM, read-out: % AR protein degradation in LNCaP Cells
[2] = LNCaP, 1 μM, read-out: % AR protein degradation in LNCaP Cells

Structure (SMILES) | % AR protein degradation in LNCaP Cells (0.1 μM) | % AR protein degradation in LNCaP Cells (1 μM) | % AR protein degradation in LNCaP Cells (10 μM) | Dmax at 0.01 µM (LNCaP) | Dmax at 0.1 µM [1] | Dmax at 1 µM [2] | Dmax at 10 µM (LNCaP, 10 μM, read-out: % AR protein degradation in LNCaP Cells)
Cc1ncsc1-c1ccc([C@H](C)NC(=O)C2C[C@@H](O)CN2C(=O)[C@@H](NC(=O)N2CCN(c3ccc(C#Cc4ccc(N5C(=S)N(c6ccc(C#N)c(C(F)(F)F)c6)C(=O)C5(C)C)cc4)cn3)CC2)C(C)(C)C)cc1 (stereo partly drawn) [Compound 25, 4-(5-((4-(3-(4-Cyano-3-(trifluoromethyl)phenyl)-5,5-dimethyl-4-oxo-2-thioxoimid-azolidin-1-yl)phenyl)ethynyl)pyridin-2-yl)-N-((2S)-1-((4R)-4-hydroxy-2-(((S)-1-(4-(4-methylthiazol-5-yl)phenyl)ethyl)carbamoyl)pyrrolidin-1-yl)-3,3-dimethyl-1-oxobutan-2-yl)piperazine-1-carboxamide] | 0% | 12% | 0% | – | – | – | –
Cc1ncsc1-c1ccc(CNC(=O)C2C[C@@H](O)CN2C(=O)[C@@H](NC(=O)CCCCCCCCNC(=O)c2ccc(N3C(=S)N(c4ccc(C#N)c(C(F)(F)F)c4)C(=O)C3(C)C)cc2F)C(C)(C)C)cc1 (stereo partly drawn) [Compound 14, (4R)-1-((S)-2-(9-(4-(3-(4-Cyano-3-(trifluoromethyl)phenyl)-5,5-dimethyl-4-oxo-2-thioxoimidazolidin-1-yl)-2-fluorobenzamido)nonanamido)-3,3-dimethylbutanoyl)-4-hydroxy-N-(4-(4-methylthiazol-5-yl)benzyl)pyrrolidine-2-carboxamide] | – | – | – | 15% | 66% | 87% | –
Cc1cc([C@H](C(=O)N2C[C@H](O)C[C@H]2C(=O)N[C@@H](CC(=O)NCCCCCCCCCNC(=O)c2ccc(C(=O)N[C@H]3C(C)(C)[C@H](Oc4ccc(C#N)c(Cl)c4)C3(C)C)cc2)c2ccc(-c3scnc3C)cc2)C(C)C)on1 [Compound 39, N1-((1r,3r)-3-(3-Chloro-4-cyanophenoxy)-2,2,4,4-tetramethylcyclobutyl)-N4-(9-((S)-3-((2S,4R)-4-hydroxy-1-((R)-3-methyl-2-(3-methylisoxazol-5-yl)butanoyl)pyrrolidine-2-carboxamido)-3-(4-(4-methylthiazol-5-yl)phenyl)propanamido)nonyl)terephthalamide] | – | – | – | 43% | 91% | 96% | –
Cc1cc([C@H](C(=O)N2C[C@H](O)C[C@H]2C(=O)N[C@@H](CC(=O)NCCCCCCCCCNC(=O)c2ccc(N3C(=S)N(c4ccc(C#N)c(C(F)(F)F)c4)C(=O)C3(C)C)cc2F)c2ccc(-c3scnc3C)cc2)C(C)C)on1 [Compound 26, (2S,4R)—N—((S)-3-((9-(4-(3-(4-Cyano-3-(trifluoromethyl)phenyl)-5,5-dimethyl-4-oxo-2-thioxoimidazolidin-1-yl)-2-fluorobenzamido)nonyl)amino)-1-(4-(4-methylthiazol-5-yl)phenyl)-3-oxopropyl)-4-hydroxy-1-((R)-3-methyl-2-(3-methylisoxazol-5-yl)butanoyl)pyrrolidine-2-carboxamide] | – | – | – | 11% | 50% | 87% | –
Cc1ncsc1-c1ccc(CNC(=O)C2C[C@@H](O)CN2C(=O)[C@@H](NC(=O)CCCNC(=O)c2ccc(N3C(=S)N(c4ccc(C#N)c(C(F)(F)F)c4)C(=O)C3(C)C)cc2F)C(C)(C)C)cc1 (stereo partly drawn) [Compound 9, (4R)-1-((S)-2-(4-(4-(3-(4-Cyano-3-(trifluoromethyl)phenyl)-5,5-dimethyl-4-oxo-2-thioxoimidazolidin-1-yl)-2-fluorobenzamido)butanamido)-3,3-dimethylbutanoyl)-4-hydroxy-N-(4-(4-methylthiazol-5-yl)benzyl)pyrrolidine-2-carboxamide] | – | – | – | – | 15% | 23% | 33%
